The results in this text go back to patent publication US20180064110A1, “COMBINATIONS OF FUNGICIDALLY ACTIVE YEAST AND FUNGICIDES” (Bayer CropScience AG, priority 2009, published 2018).

The experiment has as its system green peach aphid (Myzus persicae). The experiment in a line: Myzus test (spray treatment) on Chinese cabbage leaf disks. The format is in vivo. The conditions noted are these: foliar, 144 h, read-out: Mortality in % After 6 Days. The method, then:
A suitable preparation of active ingredient was prepared by mixing one part by weight of active ingredient with the stated amounts of solvent and emulsifier and diluting the concentrate with emulsifier-containing water to the desired concentration as described below. A suitable suspension of biological agent was prepared by dissolving the cells, spores or viruses in emulsifier-containing water at the desired concentration.
Chinese cabbage (Brassica pekinensis) leaf disks infested by all stages of the green peach aphid (Myzus persicae) were sprayed with an active ingredient and/or biological agent preparation in the desired concentration.
After the desired time, the effect in % was ascertained. Here, 100% means that all of the aphids had been killed; 0% means that no aphids had been killed. The mortality figures determined are used for calculation according to the Colby formula (cf. Colby, S. R., “Calculating Synergistic and Antagonistic Responses of Herbicide Combinations”, Weeds 1967, 15, 20-22).

As for `O=C(NCCc1ncc(C(F)(F)F)cc1Cl)c1ccccc1C(F)(F)F` [Fluopyram, fluopyram], the mortality at 500 g/ha (500 g ai/ha) turned out to be 0%. The mortality at 1000 g/ha (1000 g ai/ha) amounted to 0%.

A word on the mortality: it is the percentage killed.
